Marks after values point to notes of the source that are not given here.
Key:
[1] = tested on: Lean; test: Body weight and blood sugar in Lean mice (Example 7); format: in vivo, mouse; conditions: for Body weight / Blood sugar level: in feed for a week (MAC 0.05%, AS-103 0.05%, AR-610 0.1%, AF 0.4%, AC 0.05%); for Body weight: control group 20.9 ± 0.8; for Blood sugar level: control group 211.2 ± 7.8; for Blood sugar level, change vs control group / Body weight, change vs control group: in feed for a week, contents as in table
Experimental: [The procedure below names another variant; the source lists this variant under the same test.] (§1) Powered feed to which ascofuranone (AF) and ascochlorin (AC) as well as its derivatives, 4-0-methylascochlorin (MAC), 4-0-carboxymethylascochlorin (AS-6), and 4-0-nicotinoyl ascochlorin (AS-103) were added to feed at the proportions shown in the table, and the feed were given to db/db mice for a week and then analyzed for blood sugar decreasing effect (8 mice/group).

[2] = tested on: db/db mice; test: Blood sugar decreasing effect in db/db mice (Example 7); format: in vivo, mouse; conditions: for Body weight / Blood sugar level: in feed for a week (MAC 0.05%, AS-103 0.05%, AR-610 0.1%, AF 0.4%, AC 0.05%); for Body weight: control group 44.6 ± 0.9; for Blood sugar level: control group 549.8 ± 21.8; for Blood sugar level, change vs control group / Body weight, change vs control group: in feed for a week, contents as in table
Experimental: as §1

[3] = tested on: Mouse, rat, beagle dog, quail, DOCA hypertension rat; test: Serum cholesterol decreasing effect; format: in vivo; conditions: incl. rat and quail raised with hyperfat feed
Experimental: The quails are raised by giving a feed containing 2% cholesterol for 9 months to develop hypercholesteremia, and, in the case of the rats, mineral corticoid and saline are administered to allow them to develop heart and blood vessel disease and then hypercholesteremia.

[4] = tested on: Mouse, db/db mouse; test: Serum insulin decreasing effect; format: in vivo; conditions: about 0.1% added to feed

SMILES	Body weight [1]	Blood sugar level [1]	Blood sugar level, change vs control group [1]	Body weight, change vs control group [1]	Body weight [2]	Blood sugar level [2]	Blood sugar level, change vs control group [2]	Body weight, change vs control group [2]	serum cholesterol decreasing effect [3]	serum insulin [4]
COc1c(Cl)c(C)c(C=O)c(O)c1C/C=C(C)/C=C/[C@@]1(C)[C@H](C)CCC(=O)[C@@H]1C [4-O-methylascochlorin]	21.3 ± 0.9 g	223.1 ± 11.6 mg/dL	ns	ns	45.5 ± 1.8 g	478.0 ± 28.3 mg/dL	−13.3%*	ns	carboxymethylascochlorin, and ascofuranone exhibits an effect of decreasing serum	added in an amount of about 0.1% to feed and given to an animal, it decreases serum
CC(C=CC1(C)C(C)CCC(=O)C1C)=CCc1c(O)c(C=O)c(C)c(Cl)c1OCC(=O)O (centres unmarked) [AS-6, 4-O-carboxymethylascochlorin]	20.2 ± 0.4 g	194.1 ± 9.5 mg/dL	ns	ns	45.3 ± 1.7 g	335.8 ± 8.5 mg/dL	−38.9%**	ns	carboxymethylascochlorin, and ascofuranone exhibits an effect of decreasing serum	added in an amount of about 0.1% to feed and given to an animal, it decreases serum

Reference: patent US20050153870A1, “Medicinal composition for diagnosis, prevention, or therapy of multiple risk factor syndrome” (priority 2002, published 2005)
